This is an account of results in US20110136868A1, “AGENTS FOR INHIBITING OSTEOCLASTOGENESIS AND/OR OSTEOCLAST ACTIVATION” (University of Oxford, priority 2009, published 2011).

“Also recorded” adds a separate entry of the source.

The subject of experiment [1] is osteoclast activation. The experiment can be described thus: in vivo alpha-galactosylceramide-induced OC activation, serum CTX levels. Further details: species or system C57BL/6 mice. The procedure: NB-DNJ (500 mg/Kg) or PBS were injected intraperitoneal (i.p.) once a day for 6 consecutive days in 8 wk old C57BL/6 mice. Alpha-galactosylceramide or PBS was administered by a single i.p. injection of 2 μg on day 3. Serum collected on day 7 was used to determine carboxyterminal cross-linking telopeptide of type 1 collagen (CTX) levels (n=4-5 8 wk old female C57BL/6 mice).

In another experiment the test system is β-glucosidase. To be noted: Platt et al. 1994; cited from earlier work.
The test system of the next experiment is NFATc1. The experiment can be described thus: NFATc1 nuclear accumulation in OC (immunofluorescence, Western blot of nuclear protein). The class given is cell-based, mouse. Here is the method: (§1) BMCs were cultured to day 3 then starved in 0.5% serum medium overnight. Cells were treated with RANKL (A) or M-CSF (B) for the time points indicated and then immunoblotted with α-pERK1/2, α-pP38, α-pJNK antibodies. Membranes were stripped and restained with α-ERK, α-P38, α-JNK antibodies. […] Overnight serum starved OC were treated as indicated as subsequently stained with anti-NFATc1 and viewed by immunofluorescent microscopy. NB-DNJ abrogated the M-CSF+RANKL-induced accumulation of NFAtc1 in the nyclei. (D) BMCs were cultured 48 h with different combination of M-CSF, RANKL and NB-DNJ. Cells were collected and nuclear protein extracted and NFATc1 expression was checked by Western blot. Staining of histone-1 served as loading control.
(In general: In western blotting, separated proteins are transferred to a membrane and probed.)

Another experiment relates to α-glucosidase. To be noted: Platt et al. 1994; cited from earlier work.
Experiment [2] concerns Mouse bone marrow cells. The experiment can be described thus: in vitro RANKL-dependent osteoclastogenesis, TRAP positive osteoclast count. Format: cell-based. The procedure: Cultures on plastic plates were fixed and stained for TRAP (tartrate resistant acid […]). TRAP positive multi-nuclear (>3 nuclei) osteoclast cells were counted.
B. Mouse bone marrow cells were cultured in the presence of 25 ng/ml M-CSF with 50 ng/ml RANKL in 48-well plates. On day 3 d-PDMP (1.25, 5 or 20 μM), NB-DNJ, NB-DGJ, or N-OD-DNJ (5, 50, or 500 μM) were added. Cells were cultured for another 24 hours before fixed and stained for TRAP. TRAP positive osteoclast cells mature were counted on day 4 (left). Morphology of 4 day osteoclasts.

Experiment [3] concerns MAPK signaling (ERK, p38, JNK). Briefly: GM3-induced ERK, P38, JNK phosphorylation in OC, immunoblot. The class given is cell-based, mouse. Here is the method:
D. OC were cultured with M-CSF+RANKL to day 3 then starved in 0.5% serum medium overnight. Cells were treated with GM3 or GM3+NB-DNJ for the time points indicated and then immunoblotted with α-pERK1/2, α-pP38, α-pJNK antibodies. Membranes were stripped and restained with α-ERK, α-P38, α-JNK antibodies.

Experiment [4] relates to MAPK signaling (ERK, p38, JNK). The experiment can be described thus: MAPK signalling during osteoclastogenesis, immunoblot pERK1/2, pP38, pJNK after RANKL or M-CSF. Format: cell-based, mouse. To be noted: BMCs day 3, serum starved overnight. The procedure:
as §1

In experiment [5] the test system is RAW 264.7 murine macrophage cells. Briefly: Association of TRAF6 and Src with lipid rafts, sucrose gradient fractionation. Format: cell-based. To be noted: 50 ng/ml RANKL, 4 days. Here is the method:
Localization of TRAF6, […] GM1 gangliosides in lipid rafts (fraction 3-5) or non-raft fractions (fraction 7-9) in RAW 264.7 murine macrophage cells were cultured in medium only (control), in the presence of 50 ng/ml RANKL or RANKL+NB-DNJ in 48-well plates for 4 days. Cell lysates were prepared and separated using discontinuous sucrose gradient ultracentrifugation. A total of 9 fractions (1 ml each) were collected from the top to the bottom of the gradients, fraction 2 to 5 were positive for GM1 gangliosides, i.e. contained lipid rafts. The non-raft fractions were 7 to 9. Without RANKL, TRAF6 localises in the non-raft fraction while Src is presented in both raft and nonraft fractions. After RANKL treatment, TRAF6 was detected in raft fraction and Src almost totally shifted into the raft fractions.

In experiment [6] the test system is human, monocyte-derived OC. Briefly: RANKL- and M-CSF-dependent development of human monocyte-derived OC. To be noted: added either in the beginning or during OC differentiation cultures. Format: cell-based.
Experiment [7] has as its system osteoclast activation. Briefly: in vivo RANKL-induced OC activation, serum CTX levels. The arrangement: species or system mice. To be noted: NB-DNJ 500 mg/Kg i.p. daily, RANKL 4 mg/day i.p. from day 3.
Experiment [8] relates to Mouse bone marrow cells. The experiment can be described thus: Promotion of osteoclastogenesis by GM3 and IGF-1 with M-CSF and RANKL, TRAP positive mature osteoclast count. Format: cell-based. The procedure:
A. Mouse bone marrow cells were cultured in the presence of 25 ng/ml M-CSF with 50 ng/ml RANKL and GM3 (0.05, 0.5 or 5 μM) in 48-well plates for 4 days. Cultures on plastic plates were fixed and stained for TRAP. TRAP positive mature osteoclast cells were counted.
As well as RANKL+M-CSF, IGF-1 at the indicated concentrations was added.
C. […] OC were developed in the presence of RANKL+M-CSF (control), or these two cytokines plus IGF-1, GM3 or IGF-1+GM3.

The test system of a further experiment is osteoclast formation. To be noted: Iwamoto et al. 2001, cited from earlier work.
For experiment [9], the target named is T1, ceramide glucosyltransferase (CGT) (Homo sapiens, UniProt Q16739).
T1 sequence (Q16739 1-394): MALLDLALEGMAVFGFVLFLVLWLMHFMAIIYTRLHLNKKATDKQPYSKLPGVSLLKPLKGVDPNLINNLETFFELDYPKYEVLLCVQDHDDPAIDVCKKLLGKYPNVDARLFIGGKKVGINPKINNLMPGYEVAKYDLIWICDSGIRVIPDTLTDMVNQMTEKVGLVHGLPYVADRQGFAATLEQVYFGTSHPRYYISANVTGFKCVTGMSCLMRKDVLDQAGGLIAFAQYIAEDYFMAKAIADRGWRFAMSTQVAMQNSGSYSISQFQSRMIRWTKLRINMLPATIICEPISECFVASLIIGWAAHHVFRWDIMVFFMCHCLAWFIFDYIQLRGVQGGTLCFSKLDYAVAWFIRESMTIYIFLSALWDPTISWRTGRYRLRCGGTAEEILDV
To be noted: literature; cited from earlier work.

Consider `CCCCN1C[C@H](O)[C@@H](O)[C@H](O)[C@H]1CO` [NB-DNJ, N-butyl-deoxynojirimycin], for which, in the experiment on osteoclast activation [1] (NB-DNJ 500 mg/Kg i.p. daily plus alpha-galactosylceramide 2 μg i.p. day 3, serum day 7), the “serum CTX levels, αGC-induced OC activation” value is “inhibits a-galactosylceramide-induced OC activation; also recorded: returned to baseline”. Also, in the experiment with osteoclast activation [1] (mice receiving only NB-DNJ, p>0.05), the “serum CTX levels, NB-DNJ only” value is “not significantly different to vehicle controls”. For the same compound, the β-glucosidase inhibitory activity entry in the experiment on β-glucosidase is “have both α- and β-glucosidase inhibitory activities”. The “nuclear NFATc1 expression” value in the experiment with NFATc1 (Western blot, BMCs cultured 48 h with M-CSF, RANKL) is recorded as “Considerably less nuclear NFTc1”. For the same compound, the “M-CSF+RANKL-induced accumulation of NFATc1 in the nuclei” value in the experiment with NFATc1 (immunofluorescent microscopy, serum starved OC) is “abrogated; also recorded: reduced localisation of NFATc in the nucleus”. The α-glucosidase inhibitory activity entry in the experiment with α-glucosidase was “have both α- and β-glucosidase inhibitory activities”. In addition, the “inhibition of RANKL- and M-CSF-dependent development of murine OC” value in the experiment with Mouse bone marrow cells [2] (added either in the beginning or during OC differentiation cultures) is “inhibit RANKL- and M-CSF-dependent development of murine as well as human, monocyte-derived OC in a dose dependent manner”. In experiment [3], the “GM3-promoted phosphorylation of ERK, P38 and JNK, effect of NB-DNJ” value is listed as “abrogated”. For the same compound, in experiment [4], the “RANKL- and M-CSF-dependent phosphorylation of ERK, JNK and p38” value was “phosphotylation of p38 and to a lesser extend of ERKa,d Jnk is observed; also recorded: significantly reduced”. In addition, in experiment [5], the “RANKL-induced localisation of TRAF6 and Src in lipid rafts” value is “TRAF6 and Src are excluded from the rafts”. The “inhibition of RANKL- and M-CSF-dependent development of human monocyte-derived OC” value in experiment [6] is “inhibit RANKL- and M-CSF-dependent development of murine as well as human, monocyte-derived OC in a dose dependent manner”. In addition, in the experiment on osteoclast activation [7], the “serum CTX levels, RANKL-induced OC activation” value is given as “inhibits RANKL-induced OC activation”.

Consider “IGF-1: growth factor known to promote myeloma growth and OC activation”, for which the “osteoclastogenesis with IGF-1” value with Mouse bone marrow cells [8] (RANKL+M-CSF plus IGF-1) was “promotes osteoclastogenesis”. For the same compound, in the experiment with Mouse bone marrow cells [8] (RANKL+M-CSF plus IGF-1 and GM3), the “OC maturation, GM3 plus IGF-1” value is “co-operates with GM3 in promoting osteoclastogenesis”.

As for `CCCCCCCCCCCCCCCCCCCCCCCCCC(=O)N[C@@H](CO[C@H]1O[C@H](CO)[C@H](O)[C@H](O)[C@H]1O)[C@H](O)[C@H](O)CCCCCCCCCCCCCC` [αGC, alpha-galactosylceramide], the “increase of serum CTX levels” value in the experiment on osteoclast activation [1] (mice receiving αGC, p<0.01) is reported as around 50%.

Turning to `CCCCCCCCCC(=O)N[C@H](CN1CCOCC1)[C@H](O)c1ccccc1` [d-PDMP, D-threo-1-phenyl-2-decanoylamin-3-morpholino-1-propanol], in the experiment on osteoclast formation, the “inhibition of osteoclast formation / OC development” value was “can inhibit the osteoclast formation; also recorded: can prevent OC development”. Also, in experiment [9], the “inhibitory effect on CGT” value is “known CGT inhibitor”. For the same compound, the “reduction in OC activation compared with NB-DNJ” value with Mouse bone marrow cells [2] is recorded as “as effective”.

For the compound `CCCCN1C[C@H](O)[C@@H](O)[C@@H](O)[C@H]1CO` [NB-DGJ, N-butyl-deoxygalactonojirimycin], in the experiment with Mouse bone marrow cells [2], the “reduction in OC activation compared with NB-DNJ” value was “significantly less potent”.

As to lactosylceramide, the “effect on RANKL-dependent osteoclastogenesis” value with osteoclast formation (exogenous, in vitro) was “synergistic effect”.
